Results reported in the supplement of paper PMC10627819.

Tests used:
[1] = test system: S. aureus Newman; assay: fitness (endpoint OD595 vs no drug) (fraction); higher = more growth
Summary of the method: (§1)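 Bacterial growth was followed in 384-well plates seeded at OD595 0.01, with 30 µl per well, or 55 µl for S. pneumoniae, in TSB, LB Lennox or CY at 37 °C. OD595 was read every 30 min for 14 h, and each reading had the first reading subtracted as background. Fitness is the background-corrected optical density at entry into stationary phase divided by the robust mean of the no-drug control wells. This ratio is capped at 1.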

[2] = test system: S. aureus DSM 20231; assay: as above
Summary of the method: as §1

[3] = test system: S. aureus Newman; assay: Bliss interaction score (quartile over a dose matrix) (fitness difference); higher = more antagonism (negative = synergy)
Summary of the method: (§2)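 Quartiles summarise the Bliss score over technical, biological and donor/recipient replicates, where the score is observed minus expected fitness under a product model. Expected fitness uses single-drug values inferred from combination data. Fitness is OD595 at entry into stationary phase over the plate's robust no-drug mean, capped at 1.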

[4] = test system: S. aureus DSM 20231; assay: as above
Summary of the method: as §2

[5] = test system: S. pneumoniae D39V; assay: as above
Summary of the method: as §2

[6] = test system: B. subtilis 168; assay: as above
Summary of the method: as §2

[7] = test system: S. pneumoniae D39V; assay: fitness (endpoint OD595 vs no drug) (fraction); higher = more growth
Summary of the method: as §1

[8] = test system: B. subtilis 168; assay: as above; settings: main component drawn
Summary of the method: as §1
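For Bliss interaction score (quartile over a dose matrix) in this document: first quartile when negative (synergy) and third quartile when positive (antagonism).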

CC1(C)S[C@@H]2[C@H](NC(=O)[C@H](N)c3ccc(O)cc3)C(=O)N2[C@H]1C(=O)O [Amoxicillin] + CCCCCCCCCC(=O)N[C@@H]1[C@H]([C@@H]([C@H](O[C@H]1OC2=C3C=C4C=C2OC5=C(C=C(C=C5)[C@H]([C@H]6C(=O)N[C@@H](C7=C(C(=CC(=C7)O)OC8[C@H]([C@H]([C@@H]([C@H](O8)CO)O)O)O)C9=C(C=CC(=C9)[C@H](C(=O)N6)NC(=O)[C@@H]4NC(=O)[C@@H]1C2=CC(=CC(=C2)OC2=C(C=CC(=C2)[C@H](C(=O)N[C@H](CC2=CC(=C(O3)C=C2)Cl)C(=O)N1)N)O)O)O)C(=O)O)O[C@H]1[C@@H]([C@H]([C@@H]([C@H](O1)CO)O)O)NC(=O)C)Cl)CO)O)O [Teicoplanin]
fitness, main component drawn
Settings | first compound 0.0625 µg/mL | first compound 0.125 µg/mL | first compound 0.25 µg/mL
[1], partner 0.1562 µg/mL | 0.947 | 0.94 | 0.848
[1], partner 0.3125 µg/mL | 0.898 | 0.913 | 0.815
[1], partner 0.625 µg/mL | 0.823 | 0.853 | 0.73
[2], partner 0.1562 µg/mL | 0.575 | 0.408 | 0.199
[2], partner 0.3125 µg/mL | 0.658 | – | –
[2], partner 0.625 µg/mL | 0.619 | – | 0.0287

fitness, one replicate, main component drawn
Settings | partner 0.1562 µg/mL | partner 0.3125 µg/mL | partner 0.62 µg/mL | partner 0.625 µg/mL | partner 1.24 µg/mL | partner 2.48 µg/mL
[1], first compound 0.125 µg/mL | – | – | 0.747 | – | 0.689 | 0.396
[1], first compound 0.25 µg/mL | – | – | 0.725 | – | 0.785 | 0.491
[1], first compound 0.5 µg/mL | – | – | 0.724 | – | 0.684 | 0.462
[2], first compound 0.5 µg/mL | 0.0188 | 0.0061 | – | 0.0019 | – | –

main component drawn
Settings | Bliss interaction score
[3] | 0.0682
[4] | 0.0453
[5] | -0.0856
[6] | -0.1

CC1(C)S[C@@H]2[C@H](NC(=O)[C@H](N)c3ccc(O)cc3)C(=O)N2[C@H]1C(=O)O [Amoxicillin] + CC[C@H]1OC(=O)[C@H](C)[C@@H](O[C@H]2C[C@@](C)(OC)[C@@H](O)[C@H](C)O2)[C@H](C)[C@@H](O[C@@H]2O[C@H](C)C[C@H](N(C)C)[C@H]2O)[C@](C)(O)C[C@@H](C)CN(C)[C@H](C)[C@@H](O)[C@]1(C)O [Azithromycin]
fitness
Settings | first compound 0.0625 µg/mL | first compound 0.125 µg/mL | first compound 0.25 µg/mL
[1], partner 0.125 µg/mL | 0.788 | 0.795 | 0.757
[1], partner 0.25 µg/mL | 0.816 | 0.805 | 0.71
[1], partner 0.5 µg/mL | 0.681 | – | –
[2], partner 0.125 µg/mL | 0.527 | – | 0.0737
[2], partner 0.25 µg/mL | 0.614 | – | 0.0516
[2], partner 0.5 µg/mL | 0.277 | 0.108 | 0.0273

[2], first compound 0.5 µg/mL, one replicate
Settings | fitness
partner 0.125 µg/mL | 0.0165
partner 0.25 µg/mL | 0.004
partner 0.5 µg/mL | 0.0043

Settings | Bliss interaction score
[3] | -0.0697
[4] | -0.0724
[5] | 0.156
[6] | -0.0431

CC1(C)S[C@@H]2[C@H](NC(=O)[C@H](N)c3ccc(O)cc3)C(=O)N2[C@H]1C(=O)O [Amoxicillin] + O=C(N[C@H](CO)[C@H](O)c1ccc([N+](=O)[O-])cc1)C(Cl)Cl [Chloramphenicol]
fitness
Settings | first compound 0.0625 µg/mL | first compound 0.125 µg/mL | first compound 0.25 µg/mL
[1], partner 0.75 µg/mL | 0.724 | 0.718 | –
[1], partner 3 µg/mL | – | 0.139 | –
[2], partner 0.75 µg/mL | 0.446 | – | 0.041
[2], partner 1.5 µg/mL | 0.323 | 0.162 | 0.0389
[2], partner 3 µg/mL | 0.0721 | 0.0829 | 0.0294

[2], first compound 0.5 µg/mL, one replicate
Settings | fitness
partner 0.75 µg/mL | 0.0382
partner 1.5 µg/mL | 0.005
partner 3 µg/mL | 0.0307

Settings | Bliss interaction score
[3] | -0.108
[4] | -0.0444
[5] | 0.165
[6] | 0.122

CO/N=C(\C(=O)N[C@@H]1C(=O)N2C(C(=O)[O-])=C(C[N+]3(C)CCCC3)CS[C@H]12)c1csc(N)n1 [Cefepime] + CCCCCCCCCC(=O)N[C@@H]1[C@H]([C@@H]([C@H](O[C@H]1OC2=C3C=C4C=C2OC5=C(C=C(C=C5)[C@H]([C@H]6C(=O)N[C@@H](C7=C(C(=CC(=C7)O)OC8[C@H]([C@H]([C@@H]([C@H](O8)CO)O)O)O)C9=C(C=CC(=C9)[C@H](C(=O)N6)NC(=O)[C@@H]4NC(=O)[C@@H]1C2=CC(=CC(=C2)OC2=C(C=CC(=C2)[C@H](C(=O)N[C@H](CC2=CC(=C(O3)C=C2)Cl)C(=O)N1)N)O)O)O)C(=O)O)O[C@H]1[C@@H]([C@H]([C@@H]([C@H](O1)CO)O)O)NC(=O)C)Cl)CO)O)O [Teicoplanin]
fitness, main component drawn
Settings | first compound 0.125 µg/mL | first compound 0.25 µg/mL | first compound 0.5 µg/mL
[1], partner 0.1562 µg/mL | 0.892 | 0.827 | 0.713
[1], partner 0.3125 µg/mL | 0.897 | 0.799 | 0.73
[1], partner 0.625 µg/mL | 0.891 | 0.766 | 0.646
[2], partner 0.1562 µg/mL | 0.9 | 0.88 | 0.864
[2], partner 0.3125 µg/mL | 0.959 | 0.929 | 0.919
[2], partner 0.625 µg/mL | 0.984 | 0.87 | 0.842

fitness, [1], one replicate, main component drawn
Settings | first compound 0.125 µg/mL | first compound 0.25 µg/mL | first compound 0.5 µg/mL
partner 0.62 µg/mL | 0.712 | 0.61 | 0.625
partner 1.24 µg/mL | 0.7 | 0.634 | 0.576
partner 2.48 µg/mL | 0.459 | 0.173 | 0.203

main component drawn
Settings | Bliss interaction score
[3] | -0.0867
[4] | -0.0986
[5] | 0.0453
[6] | -0.172

CCCCCCCCCC(=O)N[C@@H](Cc1c[nH]c2ccccc12)C(=O)N[C@H](CC(N)=O)C(=O)N[C@@H](CC(=O)O)C(=O)N[C@@H]1C(=O)NCC(=O)N[C@@H](CCCN)C(=O)N[C@@H](CC(=O)O)C(=O)N[C@H](C)C(=O)N[C@@H](CC(=O)O)C(=O)NCC(=O)N[C@H](CO)C(=O)N[C@@H]([C@H](C)CC(=O)O)C(=O)N[C@@H](CC(=O)c2ccccc2N)C(=O)O[C@@H]1C [Daptomycin] + C/C(=C\C(=O)OCCCCCCCCC(=O)O)C[C@@H]1OC[C@H](C[C@@H]2O[C@H]2[C@@H](C)[C@H](C)O)[C@@H](O)[C@H]1O [Pseudomonic acid]
fitness, [1], one replicate
Settings | first compound 0.125 µg/mL | first compound 0.25 µg/mL | first compound 0.5 µg/mL
partner 0.0313 µg/mL | 0.0598 | 0.0545 | 0.0362
partner 0.0625 µg/mL | 0.0219 | 0.0175 | 0.0123
partner 0.125 µg/mL | 0.0444 | 0.0303 | 0.0061

fitness, [7]
Settings | first compound 1 µg/mL | first compound 2 µg/mL | first compound 4 µg/mL
partner 0.03 µg/mL | 0.895 | 0.904 | 0.893
partner 0.06 µg/mL | 0.679 | 0.765 | 0.736
partner 0.12 µg/mL | 0.324 | 0.407 | 0.408

Settings | Bliss interaction score
[3] | -0.0312
[4] | -0.0135
[5] | -0.101
[6] | 0.058

CCCCCCCCCC(=O)N[C@@H](Cc1c[nH]c2ccccc12)C(=O)N[C@H](CC(N)=O)C(=O)N[C@@H](CC(=O)O)C(=O)N[C@@H]1C(=O)NCC(=O)N[C@@H](CCCN)C(=O)N[C@@H](CC(=O)O)C(=O)N[C@H](C)C(=O)N[C@@H](CC(=O)O)C(=O)NCC(=O)N[C@H](CO)C(=O)N[C@@H]([C@H](C)CC(=O)O)C(=O)N[C@@H](CC(=O)c2ccccc2N)C(=O)O[C@@H]1C [Daptomycin] + CC(C1CCC(C(O1)OC2C(CC(C(C2O)OC3C(C(C(CO3)(C)O)NC)O)N)N)N)NC [Gentamicin]
fitness, [1], one replicate, main component drawn
Settings | first compound 0.125 µg/mL | first compound 0.25 µg/mL | first compound 0.5 µg/mL
partner 0.375 µg/mL | ≥ 1 | ≥ 1 | ≥ 1
partner 0.75 µg/mL | ≥ 1 | ≥ 1 | ≥ 1
partner 1.5 µg/mL | 0.656 | 0.153 | 0.237

Settings | fitness
[1], first compound 0.125 µg/mL, partner 0.5 µg/mL, main component drawn | 0.926
[1], first compound 0.125 µg/mL, partner 1 µg/mL, main component drawn | ≥ 1
[1], first compound 0.125 µg/mL, partner 2 µg/mL, main component drawn | ≥ 1
[1], first compound 0.25 µg/mL, partner 0.5 µg/mL, main component drawn | 0.947
[1], first compound 0.25 µg/mL, partner 1 µg/mL, main component drawn | ≥ 1
[1], first compound 0.25 µg/mL, partner 2 µg/mL, main component drawn | ≥ 1
[1], first compound 0.5 µg/mL, partner 0.5 µg/mL, main component drawn | 0.949
[1], first compound 0.5 µg/mL, partner 1 µg/mL, main component drawn | 0.993
[1], first compound 0.5 µg/mL, partner 2 µg/mL, main component drawn | ≥ 1
[7], first compound 1 µg/mL, partner 2 µg/mL, main component drawn | 0.952
[7], first compound 1 µg/mL, partner 4 µg/mL, main component drawn | 0.917
[7], first compound 1 µg/mL, partner 8 µg/mL, main component drawn | 0.868
[7], first compound 2 µg/mL, partner 2 µg/mL, main component drawn | 0.956
[7], first compound 2 µg/mL, partner 4 µg/mL, main component drawn | 0.905
[7], first compound 2 µg/mL, partner 8 µg/mL, main component drawn | 0.877
[7], first compound 4 µg/mL, partner 8 µg/mL, main component drawn | 0.724
[8], first compound 1 µg/mL, partner 0.0625 µg/mL, one replicate | 0.718
[8], first compound 1 µg/mL, partner 0.125 µg/mL, one replicate | 0.499
[8], first compound 1 µg/mL, partner 0.25 µg/mL, one replicate | 0.0176

fitness, [8]
Settings | first compound 0.125 µg/mL | first compound 0.25 µg/mL
partner 0.0625 µg/mL | 0.905 | 0.906
partner 0.25 µg/mL | 0.0486 | –

main component drawn
Settings | Bliss interaction score
[3] | -0.0263
[4] | 0.0663
[5] | 0.0772
[6] | 0.136
